Assay results as given in ChEMBL document CHEMBL4507276 (2021).

Tests used:
[1] = molecular target: 5-hydroxytryptamine receptor 6 (Homo sapiens) (UniProt P50406); details: Compound concentration 10.0 uM
[2] = molecular target: Ribosomal protein S6 kinase alpha-5 (Homo sapiens) (UniProt O75582); details: Compound concentration 1000.0 nM
[3] = molecular target: Sigma non-opioid intracellular receptor 1 (Homo sapiens) (UniProt Q99720); details: Compound concentration 10.0 uM
[4] = molecular target: Glycogen synthase kinase-3 alpha (Homo sapiens) (UniProt P49840); experiment: GSK3A Invitrogen selectivity data (BI); details: Compound concentration 3.0 uM
Sequence of Glycogen synthase kinase-3 alpha (Homo sapiens) (P49840 2-483 limits assumed): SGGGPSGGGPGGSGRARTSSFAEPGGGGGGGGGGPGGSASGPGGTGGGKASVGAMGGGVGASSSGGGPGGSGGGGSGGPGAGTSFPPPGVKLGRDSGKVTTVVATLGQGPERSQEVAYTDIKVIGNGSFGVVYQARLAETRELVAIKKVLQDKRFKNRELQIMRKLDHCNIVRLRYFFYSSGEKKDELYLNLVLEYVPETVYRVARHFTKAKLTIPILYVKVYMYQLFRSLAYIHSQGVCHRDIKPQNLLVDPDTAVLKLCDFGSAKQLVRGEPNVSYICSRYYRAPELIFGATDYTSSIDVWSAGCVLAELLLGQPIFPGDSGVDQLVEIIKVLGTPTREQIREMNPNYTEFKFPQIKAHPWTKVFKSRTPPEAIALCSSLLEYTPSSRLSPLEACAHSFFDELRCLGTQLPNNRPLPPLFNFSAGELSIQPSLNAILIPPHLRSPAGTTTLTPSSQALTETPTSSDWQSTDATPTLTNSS

[5] = molecular target: T1, cGMP-dependent protein kinase 1 (Homo sapiens) (UniProt Q13976); experiment: PRKG1 Invitrogen selectivity data (BI); details: Compound concentration 3.0 uM
T1 sequence (whole entry): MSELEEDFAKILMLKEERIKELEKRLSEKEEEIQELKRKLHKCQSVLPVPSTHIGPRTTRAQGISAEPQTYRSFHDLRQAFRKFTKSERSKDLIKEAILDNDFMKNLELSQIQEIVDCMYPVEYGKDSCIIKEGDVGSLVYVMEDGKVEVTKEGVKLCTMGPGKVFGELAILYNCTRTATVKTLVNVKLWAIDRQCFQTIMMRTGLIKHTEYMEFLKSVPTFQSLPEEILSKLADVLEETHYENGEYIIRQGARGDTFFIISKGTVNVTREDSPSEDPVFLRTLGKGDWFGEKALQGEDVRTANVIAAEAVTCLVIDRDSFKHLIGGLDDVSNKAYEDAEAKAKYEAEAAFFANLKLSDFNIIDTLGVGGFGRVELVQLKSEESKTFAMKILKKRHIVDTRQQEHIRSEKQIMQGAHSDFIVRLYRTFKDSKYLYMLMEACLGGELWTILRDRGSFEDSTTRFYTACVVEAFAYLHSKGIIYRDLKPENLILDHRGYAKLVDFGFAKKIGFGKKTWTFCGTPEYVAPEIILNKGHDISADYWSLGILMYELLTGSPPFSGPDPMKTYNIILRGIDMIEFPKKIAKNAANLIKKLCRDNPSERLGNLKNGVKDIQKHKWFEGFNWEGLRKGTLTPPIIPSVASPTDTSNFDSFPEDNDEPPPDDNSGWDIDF

[6] = molecular target: T2, 5-hydroxytryptamine receptor 3A (Homo sapiens) (UniProt P46098); experiment: 5HT3/HU Eurofins-Panlabs selectivity data (BI); details: Compound concentration 10.0 uM
T2 sequence (whole entry): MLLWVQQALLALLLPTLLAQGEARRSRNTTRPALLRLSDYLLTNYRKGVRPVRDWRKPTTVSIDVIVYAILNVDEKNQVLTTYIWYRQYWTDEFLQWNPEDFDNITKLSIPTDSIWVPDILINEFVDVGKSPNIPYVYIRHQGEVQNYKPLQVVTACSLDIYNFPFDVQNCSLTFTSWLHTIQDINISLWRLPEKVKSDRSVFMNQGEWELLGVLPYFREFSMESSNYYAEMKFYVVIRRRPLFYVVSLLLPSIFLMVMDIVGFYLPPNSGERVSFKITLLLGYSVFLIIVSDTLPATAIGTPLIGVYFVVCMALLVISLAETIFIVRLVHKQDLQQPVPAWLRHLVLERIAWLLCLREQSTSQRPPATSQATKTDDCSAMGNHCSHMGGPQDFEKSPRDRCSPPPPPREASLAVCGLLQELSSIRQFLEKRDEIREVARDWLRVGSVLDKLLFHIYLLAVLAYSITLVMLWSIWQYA

[7] = molecular target: Alpha-1B adrenergic receptor (Rattus norvegicus) (UniProt P15823); experiment: ALPHA1B/R Eurofins-Panlabs selectivity data (BI); details: Compound concentration 10.0 uM
Sequence of Alpha-1B adrenergic receptor (Rattus norvegicus) (P15823 whole entry, looked up): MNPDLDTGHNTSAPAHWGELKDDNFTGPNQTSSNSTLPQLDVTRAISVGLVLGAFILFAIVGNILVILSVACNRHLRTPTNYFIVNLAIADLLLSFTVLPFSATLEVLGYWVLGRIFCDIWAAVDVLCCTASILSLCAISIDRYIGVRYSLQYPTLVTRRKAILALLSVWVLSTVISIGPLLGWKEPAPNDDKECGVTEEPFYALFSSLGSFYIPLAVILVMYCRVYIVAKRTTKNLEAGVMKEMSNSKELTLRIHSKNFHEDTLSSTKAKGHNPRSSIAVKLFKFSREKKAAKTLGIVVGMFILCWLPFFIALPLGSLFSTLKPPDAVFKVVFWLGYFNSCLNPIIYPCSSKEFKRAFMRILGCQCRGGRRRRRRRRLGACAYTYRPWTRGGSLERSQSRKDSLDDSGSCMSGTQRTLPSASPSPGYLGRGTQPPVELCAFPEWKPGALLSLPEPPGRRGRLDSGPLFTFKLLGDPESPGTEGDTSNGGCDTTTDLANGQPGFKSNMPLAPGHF

[8] = molecular target: T3, Serine/threonine-protein kinase TAO3 (Homo sapiens) (UniProt Q9H2K8); experiment: TAOK3 Invitrogen selectivity data (BI); details: Compound concentration 3.0 uM
T3 sequence (whole entry): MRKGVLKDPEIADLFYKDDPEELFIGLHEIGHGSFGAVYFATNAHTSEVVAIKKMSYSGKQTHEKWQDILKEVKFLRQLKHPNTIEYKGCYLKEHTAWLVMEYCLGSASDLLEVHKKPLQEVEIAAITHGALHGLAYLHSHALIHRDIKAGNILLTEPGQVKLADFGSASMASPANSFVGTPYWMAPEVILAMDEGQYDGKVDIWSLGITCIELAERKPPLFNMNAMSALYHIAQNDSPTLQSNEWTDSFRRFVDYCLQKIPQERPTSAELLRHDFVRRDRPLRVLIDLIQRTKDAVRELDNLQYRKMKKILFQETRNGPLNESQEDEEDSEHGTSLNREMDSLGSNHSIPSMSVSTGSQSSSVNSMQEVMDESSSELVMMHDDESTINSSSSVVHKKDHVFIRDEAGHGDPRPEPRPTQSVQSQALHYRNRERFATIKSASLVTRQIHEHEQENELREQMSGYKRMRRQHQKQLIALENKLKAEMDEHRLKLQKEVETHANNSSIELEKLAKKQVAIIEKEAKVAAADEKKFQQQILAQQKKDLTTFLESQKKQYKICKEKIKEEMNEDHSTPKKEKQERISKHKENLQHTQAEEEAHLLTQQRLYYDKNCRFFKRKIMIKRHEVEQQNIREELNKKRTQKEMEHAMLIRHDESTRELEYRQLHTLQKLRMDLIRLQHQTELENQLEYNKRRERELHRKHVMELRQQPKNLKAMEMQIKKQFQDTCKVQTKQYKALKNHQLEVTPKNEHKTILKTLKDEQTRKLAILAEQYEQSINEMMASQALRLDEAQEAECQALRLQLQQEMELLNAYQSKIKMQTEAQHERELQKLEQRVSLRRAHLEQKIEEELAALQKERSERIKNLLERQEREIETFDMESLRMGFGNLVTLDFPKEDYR

[9] = molecular target: Nicotinic acetylcholine receptor alpha-1/beta-1 (Homo sapiens) (UniProt P02708+P11230); experiment: NACH_BS_N/H Eurofins-Panlabs selectivity data (BI); assay type: protein-complex assay; details: Compound concentration 10.0 uM
[10] = molecular target: Glucocorticoid receptor (Homo sapiens) (UniProt P04150); experiment: GLUCOCORTICO Eurofins-Panlabs selectivity data (BI); details: Compound concentration 10.0 uM
Sequence of Glucocorticoid receptor (Homo sapiens) (P04150 whole entry): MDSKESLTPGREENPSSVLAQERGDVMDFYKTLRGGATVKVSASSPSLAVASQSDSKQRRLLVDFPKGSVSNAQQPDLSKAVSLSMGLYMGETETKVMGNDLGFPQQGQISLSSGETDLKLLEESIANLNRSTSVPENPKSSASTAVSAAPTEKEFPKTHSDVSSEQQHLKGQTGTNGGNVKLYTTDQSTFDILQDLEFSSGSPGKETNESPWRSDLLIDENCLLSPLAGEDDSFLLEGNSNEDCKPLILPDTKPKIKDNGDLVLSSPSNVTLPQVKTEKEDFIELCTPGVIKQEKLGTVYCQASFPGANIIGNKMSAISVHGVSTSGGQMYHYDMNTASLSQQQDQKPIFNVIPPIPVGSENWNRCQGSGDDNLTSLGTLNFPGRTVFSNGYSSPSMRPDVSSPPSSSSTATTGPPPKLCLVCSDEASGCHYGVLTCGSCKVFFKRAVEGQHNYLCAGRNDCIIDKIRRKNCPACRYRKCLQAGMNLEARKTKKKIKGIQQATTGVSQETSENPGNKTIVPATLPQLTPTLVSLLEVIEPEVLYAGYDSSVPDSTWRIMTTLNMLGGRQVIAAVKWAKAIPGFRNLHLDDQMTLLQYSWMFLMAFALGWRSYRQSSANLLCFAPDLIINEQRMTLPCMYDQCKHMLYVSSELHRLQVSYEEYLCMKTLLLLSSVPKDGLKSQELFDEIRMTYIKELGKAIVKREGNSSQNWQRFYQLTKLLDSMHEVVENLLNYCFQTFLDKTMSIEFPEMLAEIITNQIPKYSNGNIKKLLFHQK

[11] = molecular target: Sodium- and chloride-dependent GABA transporter 1 (Rattus norvegicus) (UniProt P23978); experiment: GABATRANS/RA Eurofins-Panlabs selectivity data (BI); details: Compound concentration 10.0 uM

Sequence of Sigma non-opioid intracellular receptor 1 (Homo sapiens) (Q99720 whole entry): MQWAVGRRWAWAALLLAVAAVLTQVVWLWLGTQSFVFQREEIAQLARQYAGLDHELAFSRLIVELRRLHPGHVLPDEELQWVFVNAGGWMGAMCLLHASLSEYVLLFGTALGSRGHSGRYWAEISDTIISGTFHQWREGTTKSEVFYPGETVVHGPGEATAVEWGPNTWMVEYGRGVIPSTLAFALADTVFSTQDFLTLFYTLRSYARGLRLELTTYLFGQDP
Sequence of 5-hydroxytryptamine receptor 6 (Homo sapiens) (P50406 whole entry): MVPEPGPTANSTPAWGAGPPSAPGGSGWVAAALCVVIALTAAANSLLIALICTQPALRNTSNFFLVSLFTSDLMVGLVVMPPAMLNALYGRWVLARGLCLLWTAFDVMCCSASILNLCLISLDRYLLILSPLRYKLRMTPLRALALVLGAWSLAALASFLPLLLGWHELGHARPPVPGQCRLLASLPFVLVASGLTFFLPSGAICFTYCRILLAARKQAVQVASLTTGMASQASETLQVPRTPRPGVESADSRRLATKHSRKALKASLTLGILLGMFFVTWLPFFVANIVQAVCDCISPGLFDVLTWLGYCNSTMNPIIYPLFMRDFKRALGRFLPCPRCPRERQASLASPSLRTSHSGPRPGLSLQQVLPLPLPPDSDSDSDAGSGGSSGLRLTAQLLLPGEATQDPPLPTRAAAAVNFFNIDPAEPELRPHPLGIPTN
Sequence of Ribosomal protein S6 kinase alpha-5 (Homo sapiens) (O75582 whole entry, looked up): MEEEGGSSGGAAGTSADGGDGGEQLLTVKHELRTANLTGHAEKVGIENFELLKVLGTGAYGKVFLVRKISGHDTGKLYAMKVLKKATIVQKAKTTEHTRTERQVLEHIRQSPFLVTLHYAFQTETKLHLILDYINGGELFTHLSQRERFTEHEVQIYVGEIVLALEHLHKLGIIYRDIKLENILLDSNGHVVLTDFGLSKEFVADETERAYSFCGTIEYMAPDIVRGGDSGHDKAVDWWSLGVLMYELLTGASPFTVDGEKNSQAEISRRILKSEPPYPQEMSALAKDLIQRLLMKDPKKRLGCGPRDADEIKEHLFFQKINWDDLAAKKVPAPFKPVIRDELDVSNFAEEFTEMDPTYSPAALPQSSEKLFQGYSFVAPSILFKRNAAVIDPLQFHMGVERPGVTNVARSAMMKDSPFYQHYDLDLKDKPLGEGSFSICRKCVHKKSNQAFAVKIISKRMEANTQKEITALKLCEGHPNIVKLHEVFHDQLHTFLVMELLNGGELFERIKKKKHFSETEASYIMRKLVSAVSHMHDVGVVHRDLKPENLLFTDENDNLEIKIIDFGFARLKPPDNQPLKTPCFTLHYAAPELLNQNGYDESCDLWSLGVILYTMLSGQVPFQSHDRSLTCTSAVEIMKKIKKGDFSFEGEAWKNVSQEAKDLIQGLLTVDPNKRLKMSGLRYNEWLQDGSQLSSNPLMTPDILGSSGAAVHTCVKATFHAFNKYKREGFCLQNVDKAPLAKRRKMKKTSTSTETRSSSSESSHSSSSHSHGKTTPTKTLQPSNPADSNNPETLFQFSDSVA

CN(C)C(=O)Cn1cc(-c2nc(C3(c4ccc(-c5cnc(N)nc5)cc4)CC3)no2)cn1 [BI 0153]
inactive: inhibition [1] -7.48% | residual activity [2] 67% | inhibition [3] -4.19%

CN(C)C(=O)Cn1cc(-c2nc([C@@](C)(c3ccc(-c4cnc(N)nc4)cc3)C3CC3)no2)cn1 [BI 665915]
inactive: residual activity [4] 96% | residual activity [5] 102% | residual activity [6] 102% | residual activity [7] 96% | residual activity [8] 104% | residual activity [9] 99% | residual activity [10] 111% | residual activity [11] 82%
